The values below come from patent US6521283B1, “Non-thrombogenic surfaces” (Biocompatibles Limited, priority 1990, dated 2003).

In one test the test system is recalcified blood. In words: in-use simulation: recalcified blood incubated in catheter segments, clot formation. More on the design: species or system human. The conditions noted are these: 15 cm catheter segment, frosted region, coated according to Example 2, 37° C., 150 minutes. Here is the method: Three 15 cm segments of catheter (frosted region) coated according to Example 2 were prepared with the ends sealed using Eppendorf tubes. 40 ml of blood was collected from an adult volunteer into tri-sodium citrate (32 g/l) using the double syringe technique (the first 5 ml were discarded). 2 ml of 0.025 M calcium chloride in 0.15 M sodium chloride was added to 10 ml of citrated blood. 4 ml of recalcified blood was then added to each of the three catheter segments. The tubes were placed in a 37° C. incubator for 150 minutes. The samples were turned every 30 minutes. After this incubation the blood was drained from each of the catheters. They were then rinsed using PBS to remove any loosely bound material.

Another test deals with platelets. Description: quantitative platelet adhesion test (ATP luminometry) in fresh citrated whole human blood. It counts as cell-based. Here is the method:
A quantitative platelet adhesion test was carried out by immersing samples in fresh citrated whole human blood at room temperature for 30 minutes. Tubing samples were prepared in 3 cm lengths sealed at both ends (the blood being introduced into the sample by hypodermic needle), and constantly mixed using a spiral mixer (tests were carried out in triplicate). Blood used in this assay was obtained using the double syringe method.
After incubation the samples were washed in isotonic phosphate buffered saline (PBS) and extracted into 1% trichloro acetate (TCA) (w/v) in 2 mM ethylene diamine tetraacetic acid (EDTA) to liberate ATP from any platelets adhering to the walls of the tubing.
The amount of ATP present in the extractant was estimated using the LKB Pharmacia ATP assay kit and a luminometer.
The number of platelets adhering to the samples was estimated from a standard curve using ATP levels associated with a known number of platelets.

The mark [1] stands for this setting: PE (polyethylene) treated at 10 mg/ml.
The mark [2] stands for this setting: PVC thoracic drain catheter, clear region, coated at 10 mg/ml (Example 2).
Setting [3] is: PVC thoracic drain catheter, frosted region, coated at 10 mg/ml (Example 2).
Where [4] appears, read: polystyrene petri dish spin-coated at 10 mg/ml (Example 4).

On to `CCCCCCCCCCCCCC(=O)OC[C@H](COP(=O)([O-])OCC[N+](C)(C)C)OC(=O)CCCCCCCCCCCCC` [DMPC, dimyristoyl phosphatidyl choline], for which the “drainage of blood and clot remaining in catheter” value in the test on recalcified blood is “Whole blood drained easily. One small clot remained attached to the surface”. In addition, in the test with platelets (setting [1]), the “% Reduction (platelet adhesion vs uncoated PE)” value was 94%; the “platelets adhered, DONOR 1” value is 0.91 no. of platelets ×10^6 per 22 mm^2 area of material; the “platelets adhered, DONOR 2” value is on record as 1.38 no. of platelets ×10^6 per 22 mm^2 area of material; the “platelets adhered, DONOR 3” value is listed as 3.99 no. of platelets ×10^6 per 22 mm^2 area of material. The “platelets adhered, X̄ (mean of donors)” value in the test on platelets (setting [1]) is recorded as 2.09 no. of platelets ×10^6 per 22 mm^2 area of material. For the same compound, in the test on platelets (setting [2]), the “% Reduction (platelet adhesion vs uncoated)” value was 56.1%; the “platelets adhered, DONOR 1” value is recorded as 15.26 platelets adhered ×10^6 per 3 cm lengths of catheters; the “platelets adhered, DONOR 2” value is listed as 8.09 platelets adhered ×10^6 per 3 cm lengths of catheters; the “platelets adhered, DONOR 3” value was 16.78 platelets adhered ×10^6 per 3 cm lengths of catheters. For the same compound, the “platelets adhered, X̄ (mean of donors)” value in the test on platelets (setting [2]) is reported as 13.38 platelets adhered ×10^6 per 3 cm lengths of catheters. Besides, in the test with platelets (setting [3]), the “% Reduction (platelet adhesion vs uncoated)” value is on record as 95%; the “platelets adhered, DONOR 1” value is given as 0.31 platelets adhered ×10^6 per 3 cm lengths of catheters; the “platelets adhered, DONOR 2” value is given as 0.11 platelets adhered ×10^6 per 3 cm lengths of catheters; the “platelets adhered, DONOR 3” value was 0.56 platelets adhered ×10^6 per 3 cm lengths of catheters. For the same compound, the “platelets adhered, X̄ (mean of donors)” value in the test with platelets (setting [3]) is on record as 0.33 platelets adhered ×10^6 per 3 cm lengths of catheters. In the test on platelets (setting [4]), the “% Reduction (platelet adhesion vs uncoated)” value is given as 97%; the “platelets adhered, DONOR 1” value is 1.20 no. of platelets ×10^6 adhered per petri dish (50 mm diameter); the “platelets adhered, DONOR 2” value is listed as 0.26 no. of platelets ×10^6 adhered per petri dish (50 mm diameter); the “platelets adhered, DONOR 3” value is reported as 3.78 no. of platelets ×10^6 adhered per petri dish (50 mm diameter). The “platelets adhered, X̄ (mean of donors)” value with platelets (setting [4]) is recorded as 1.75 no. of platelets ×10^6 adhered per petri dish (50 mm diameter).
